What was measured:
[1] = test system: platelet aggregation (ADP-induced); assay: Platelet anti-aggregatory activities, ADP-induced aggregation of washed platelet suspension; type: cell-based, Japanese white male rabbits; details: for IC50: Oryctolagus cuniculus, 0.05 h, rabbit platelet suspension, 3 min preincubation, read-out: Platelet anti-aggregatory activities ED50, ADP (concentration inhibiting 50% of the platelet aggregation); for activity ratio, ADP (PGI2 = 1): ratio of ED50 relative to PGI2
Description: (§1) Japanese white male rabbits having a weight of from 2.0 to 2.5 kg were used.
(§2) Under anesthesia with pentobarbital sodium, blood was collected from the carotid artery and mixed with citric acid dextrose solution (1/7 volume) as an anticoagulant. Then, the mixture was subjected to centrifugal separation at 140 ×g for 15 minutes, whereupon the supernatant (platelet rich plasma: PRP) was collected. PRP was subjected to centrifugal separation at 1,300 ×g for 7 minutes, and platelet pellets thereby obtained were washed with a HEPES buffer solution (pH 6.5) for washing platelets and then subjected to centrifugal separation at 1,300 ×g for 7 minutes. The platelet pellets were washed twice under the same conditions and then suspended in a suspending solution (prepared by adding 0.1% […] for washing platelets) to make a platelet suspension containing from 5 to 8×10^8 platelets/ml. An aggregation meter was used for the measurement of the platelet aggregatory ability. To 380 μl of the platelet suspension, 10 μl of a test compound or a solvent as control was added. Three minutes later, 10 μl of a platelet aggregatory substance (as the final concentration: […], or […]) was added to induce platelet aggregation. The blood platelet anti-aggregatory activities by the test compound was represented by ED50 (i.e. the concentration of the test compound inhibiting 50% of the platelet aggregation).

[2] = test system: platelet aggregation (collagen-induced); assay: Platelet anti-aggregatory activities, collagen-induced aggregation of washed platelet suspension; type: cell-based, Japanese white male rabbits; details: for IC50: Oryctolagus cuniculus, 0.05 h, rabbit platelet suspension, 3 min preincubation, read-out: Platelet anti-aggregatory activities ED50, collagen (concentration inhibiting 50% of the platelet aggregation)
Description: as §1, §2

[3] = test system: gastric lesion induced by ethanol; assay: Inhibitory effect on formation of gastric lesion induced by ethanol; type: in vivo, Male wistar rats; details: rat, p.o, 1.5 hours later; for ED50: po, 1 ml of 99.5% ethanol orally 30 minutes after test compound, read-out: Inhibitory effect on formation of gastric lesion induced by ethanol ED50 (dose at which the ulcer was inhibited by 50%); for activity ratio, gastric lesion (PGE2 = 1): ratio of ED50 relative to PGE2
Description: Male wistar rats having a weight of from 170 to 270 g were put into individual cages and starved for 24 hours. During this starvation period, the rats were allowed to drink water freely. A test compound or PGE2 as a comparative compound was orally administered at a dose of 3 μg/kg, 10 μg/kg or 30 μg/kg, and 30 minutes later, 1 ml of 99.5% ethanol was orally administered to each rat. One hour or 4.5 hours after the ethanol administration, each rat was sacrificed by cervical vertebral dislocation, and the stomach was taken out. Each stomach was inflated with an amount of about 8 ml of 1% formaline solution and put into 1% formaline solution for 30 minutes to fix the gastric wall. After the fixing, the stomach was severed along the greater curvature, and the mucous membrane surface of the stomach was gently washed with flowing water. Then, the total length of lesions appearing on the gastric glandular portion was determined and used as the ulcer index.
The inhibitory effect of the test compound was represent by ED50 (i.e. the dose of the test compound at which the ulcer was inhibited by 50% relative to the ulcer index of the non-treated group). To the non-treated group, the solvent was administered.

Compound	IC50 [1] [nM]	IC50 [2] [nM]	ED50 [3] [µg/kg]	activity ratio, gastric lesion (PGE2 = 1) [3]	activity ratio, ADP (PGI2 = 1) [1]	activity ratio, collagen (PGI2 = 1) ([2]; ratio of ED50 relative to PGI2)
CCCCC[C@H](O)/C=C/[C@@H]1[C@H]2C/C(=C/CCCC(=O)O)O[C@H]2C[C@H]1O [PGI2, reference compound]	2.9	3.4	–	–	–	–
CCC#CC[C@@H](C)[C@H](O)C#C[C@@H]1[C@H]2CCC(CCOCC(=O)O)=C[C@H]2C[C@H]1O [f]	–	–	2.1	4.3	–	–
CCC#CCC(C)(C)[C@H](O)C#C[C@@H]1[C@H]2CCC(/C=C\CCC(=O)O)=C[C@H]2C[C@H]1O [c]	1.3	0.58	0.97	9.3	2.2	5.9
CCC#CCC(C)(C)[C@H](O)C#C[C@@H]1[C@H]2CCC(CCOCC(=O)O)=C[C@H]2C[C@H]1O [g, 3-(3-oxa-4-carboxybutyl)-7-exo-(4,4-dimethyl-3α-hydroxy-1,6-nondiynyl)-8-endo-hydroxy-cisbicyclo[4.3.0]non-2-ene]	2.7	8.6	–	–	1.1	–

Reference: patent US5117037A, “Cis-bicyclo[4,3.0]non-2-end derivatives” (Sagami Chemical Research Center Toa Eiyo Ltd., priority 1989, dated 1992)
